Source: patent US20250032489A1, “MIXED LINEAGE KINASE INHIBITORS AND METHODS OF USE” (The U.S.A., as represented by the Secretary, Department of …, priority 2022, published 2025)
Where two headings read alike, the source gives them in different places. Where a SMILES comes first, the peptide text is derived from it. The star is where a group is joined. Cbz = O=C(OCc1ccccc1)*

Assays:
LZK [1] = molecular target: T1, LZK (Homo sapiens (Human), UniProt O43283); assay: KD determination, Eurofins DiscoveRx Kd-Elect; assay type: binding
T1 sequence (O43283 whole entry): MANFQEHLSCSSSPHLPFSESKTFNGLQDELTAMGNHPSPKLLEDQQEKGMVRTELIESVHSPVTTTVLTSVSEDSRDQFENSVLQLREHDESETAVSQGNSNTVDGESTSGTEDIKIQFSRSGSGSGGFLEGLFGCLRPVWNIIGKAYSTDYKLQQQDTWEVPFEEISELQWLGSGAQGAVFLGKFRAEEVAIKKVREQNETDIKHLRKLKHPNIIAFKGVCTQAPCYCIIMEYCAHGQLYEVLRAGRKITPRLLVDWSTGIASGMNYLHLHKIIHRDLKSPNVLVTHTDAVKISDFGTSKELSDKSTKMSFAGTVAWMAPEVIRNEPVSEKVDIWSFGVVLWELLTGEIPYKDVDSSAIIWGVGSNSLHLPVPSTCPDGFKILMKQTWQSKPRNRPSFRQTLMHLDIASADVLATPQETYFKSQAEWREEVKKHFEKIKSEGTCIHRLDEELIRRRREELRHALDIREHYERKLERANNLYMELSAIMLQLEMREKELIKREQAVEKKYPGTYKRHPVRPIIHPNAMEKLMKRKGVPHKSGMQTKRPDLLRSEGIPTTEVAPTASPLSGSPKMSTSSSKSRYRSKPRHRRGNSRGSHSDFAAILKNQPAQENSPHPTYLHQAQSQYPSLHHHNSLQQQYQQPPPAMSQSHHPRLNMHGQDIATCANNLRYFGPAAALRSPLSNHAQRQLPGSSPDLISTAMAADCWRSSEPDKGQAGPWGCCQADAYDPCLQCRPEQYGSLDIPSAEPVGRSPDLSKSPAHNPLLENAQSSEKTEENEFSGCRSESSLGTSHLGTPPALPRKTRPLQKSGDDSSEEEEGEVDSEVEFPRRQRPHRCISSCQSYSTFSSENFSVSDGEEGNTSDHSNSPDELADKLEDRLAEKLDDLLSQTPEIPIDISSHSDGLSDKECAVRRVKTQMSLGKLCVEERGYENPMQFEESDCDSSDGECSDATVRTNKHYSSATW
Protocol: (§1) Substituents were varied to improve binding affinity to LZK and selectivity over DLK. KD values were measured by Eurofins DiscoveRx using the Kd-Elect system. Parallel artificial membrane permeability assay (PAMPA) values were measured by Cyprotex.
(§2) KD values were calculated with a standard dose-response curve using the Hill equation: […]
(§3) The Hill Slope was set to −1. Curves were fitted using a non-linear least square fit with the Levenberg-Marquardt algorithm.

DLK = DLK (Homo sapiens (Human), UniProt Q12852); assay: KD determination, Eurofins DiscoveRx Kd-Elect; assay type: binding
Chain of DLK (Q12852 whole entry): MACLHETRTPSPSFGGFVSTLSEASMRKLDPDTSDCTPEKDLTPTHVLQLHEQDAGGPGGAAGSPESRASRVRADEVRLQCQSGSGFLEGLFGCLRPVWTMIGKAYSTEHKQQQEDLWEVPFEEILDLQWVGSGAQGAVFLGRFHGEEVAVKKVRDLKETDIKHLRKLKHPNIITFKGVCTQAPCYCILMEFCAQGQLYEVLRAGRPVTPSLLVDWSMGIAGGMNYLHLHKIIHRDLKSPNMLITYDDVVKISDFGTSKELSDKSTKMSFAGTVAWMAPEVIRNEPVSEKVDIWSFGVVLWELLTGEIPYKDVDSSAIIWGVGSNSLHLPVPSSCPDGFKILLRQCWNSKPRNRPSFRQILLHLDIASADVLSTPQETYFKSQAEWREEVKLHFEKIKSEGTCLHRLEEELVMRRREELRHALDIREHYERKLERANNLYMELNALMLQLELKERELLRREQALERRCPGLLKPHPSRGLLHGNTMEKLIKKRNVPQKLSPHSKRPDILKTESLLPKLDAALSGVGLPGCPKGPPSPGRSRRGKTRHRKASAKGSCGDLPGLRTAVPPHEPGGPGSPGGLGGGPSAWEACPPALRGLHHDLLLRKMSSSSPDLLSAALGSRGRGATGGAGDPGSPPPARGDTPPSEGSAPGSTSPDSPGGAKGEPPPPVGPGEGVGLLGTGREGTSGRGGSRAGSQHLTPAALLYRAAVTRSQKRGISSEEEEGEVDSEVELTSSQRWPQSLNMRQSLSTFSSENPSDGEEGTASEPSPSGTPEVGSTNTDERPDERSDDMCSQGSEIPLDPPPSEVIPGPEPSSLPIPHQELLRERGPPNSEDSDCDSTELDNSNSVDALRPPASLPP
Protocol: as §1, §2, §3

LZK [2] = molecular target: T1, LZK; assay: Phospho-JNK ELISA in doxycycline-induced CAL33 cells expressing LZK; assay type: cell-based; settings: for Phospho-JNK levels: 1 μM LZK inhibitor, 1 hour, compared to GNE-3511 control
From the text: The ViraPower HiPerform T-REx Gateway Expression System (Invitrogen) was used to generate cells with tetracycline-inducible expression of LZK. In brief, wild-type (WT) or drug-resistant mutant (Q240S) LZK (cloned into pLenti6.3/TO/V5-DEST vector) and pLenti3.3/TR (for tetracycline repressor expression) were transfected into 293FT cells using Lipofectamine 2000 to generate lentiviral stock. Cell lines were generated by antibiotic selection (blasticidin [Gibco] and geneticin [Gibco]). Doxycycline (Sigma-Aldrich) was used at 1 μg/mL to induce LZK expression.
A PathScan® Phospho-SAPK/JNK (Thr183/Tyr185) Sandwich ELISA Assay (Cell Signaling Technology) was used for ELISA assays following the manufacturer's protocol. In general, 500,000 cells were plated and treated with doxycycline the following day where appropriate and incubated at 37° C. for 48 hours. Cells were treated with the drug compound or control in 5% FBS media for 1 hour. After appropriate treatment time, cells were lysed on ice with 1× Cell Lysis Buffer (Cell Signaling Technology) supplemented with phosphatase and protease inhibitors (Sigma). Each diluted cell lysate was added to Phospho-SAPK/JNK (Thr183/Tyr185)Rabbit mAb Coated microwells in triplicate and incubated overnight at 4° C. Samples were treated with the following antibodies and incubated at 37° C. for 1 hour and 30 minutes, respectively: Detection Antibody and HRP-Linked secondary antibody. Samples were washed between treatments using 1× Wash Buffer according to the manufacturer's protocol. TMB substrate was added to each well and incubated at 37° C. for 10 minutes. Following this, STOPsolution was added to each well and absorbance was measured at 450 nm using iMark™ Microplate Absorbance Reader (Bio-Rad). Graphs display relative phospho-JNK levels.

[3] = PAMPA (parallel artificial membrane permeability assay); assay type: in vitro ADME
Protocol: as §1

c-MYC = assay: Western blot of c-MYC abundance; assay type: cell-based; settings: CAL33 and BICR56 cells depleted of LZK for 48 hours, 10 μM for six hours
Protocol: Generally, cells were plated in six-well or 35-mm plates for 24 hours, after which doxycycline was added or treatment with specific inhibitor was administered using 5% FBS media for 48 hours. After appropriate treatment time, cells were washed with ice-cold phosphate-buffered saline without Ca and Mg (Quality Biological) and then lysed on ice with RIPA buffer ([…], 1.0% IGEPAL® CA-630, 0.5% sodium deoxycholate, 0.1% SDS, 50 mM Tris, pH 8.0) (Sigma-Aldrich) supplemented with protease inhibitor tablet (Sigma-Aldrich) and phosphatase inhibitor cocktails 2 and 3 (Sigma-Aldrich) followed by centrifugation at 15,000 rpm for 10 minutes at 4° C. Protein concentrations were determined from the cell lysate by using 660 nm Protein Assay Reagent (Pierce). Cell extracts were denatured, subjected to SDS-PAGE, transferred to PVDF membranes (Bio-Rad) and blocked for 2 hours using 5% bovine serum albumin (BSA) in phosphate-buffered saline and 0.1% Tween® 20 (PBS-T). The membranes were incubated with the specific antibodies overnight in 5% BSA/PBST at 4° C. followed by a 1 hour incubation with the appropriate horseradish peroxidase-conjugated secondary antibodies and signal was detected by chemiluminescence (Thermo Fisher).

OVCAR5 cells = assay: Colony formation assay; assay type: cell-based
Protocol: (§4) Crystal violet assays were used to assess relative cell growth and survival after treatment with specific compounds. In general, cells were plated in triplicate in 12-well plates for 24 hours before drug treatments were added using 10% FBS media. The plates were incubated for 14 days, with the media and drug being replaced every 48 hours. The cells were then washed with phosphate-buffered saline and fixed in ice-cold methanol before being stained with 0.5% crystal violet (Sigma-Aldrich) in 25% methanol. Images were taken using a ChemiDoc MP Imaging System (Bio Rad), and for quantification, the crystal violet stain was dissolved in 33% acetic acid, incubated for 20 minutes with shaking, and read at 595 nm using iMark™ Microplate Absorbance Reader (Bio-Rad). Graphs display percent colony formation relative to the DMSO-treated control sample.

KYSE70 cells = assay: Colony formation assay; assay type: cell-based
Protocol: as §4

SMILES: CC(=O)NC12CC(n3cc(-c4cnc(N)c(C(F)(F)F)n4)nc3C(O)C(C)C)(C1)C2 (stereo not drawn) [compound 44]
- Kd (LZK [1]; read-out: Kd values): 0.094 µM

SMILES: CC(=O)N1CC(c2cc(Nc3cnc(C4CC4)cn3)nc(N3CC4CC4C3)c2)C1 (stereo not drawn) [compound 218]
- Kd (DLK): 0.03 µM

SMILES: CC(=O)N1CCC(c2cc(Nc3cnc(C)cn3)nc(N3CCC4(CC4)C3)c2)CC1 [compound 201]
- Kd (DLK): 0.02 µM

SMILES: CC(=O)N1CCC(c2cc(Nc3cnc(C)cn3)nc(N3CC4CCC4C3)c2)CC1 (stereo not drawn) [compound 207]
- Kd (DLK): 0.18 µM
- selectivity for LZK over DLK (LZK [1]; from KD values): 180 fold
- Kd (LZK [1]; read-out: LZK KD): 0.00097 µM

SMILES: Cc1cnc(Nc2cc(C3CCN(C4COC4)CC3)cc(N3CCC(F)(F)C3)n2)cn1 [compound 163]
- Kd (LZK [1]; read-out: LZK KD): 0.02 µM

SMILES: CC(=O)N1CCC(c2cc(Nc3cnc(C)cn3)nc(N(C)CC3CC3)c2)CC1 [compound 186]
- Kd (LZK [1]; read-out: LZK KD): 0.09 µM

SMILES: CC(=O)N1CCC(c2cc(Nc3cnc(C)cn3)nc(N3CCC(F)(F)C3)c2)CC1 [compound 107]
- Phospho-JNK levels (LZK [2]): particularly effective

SMILES: CC(=O)N1CCC(c2cc(Nc3cnc(C)cn3)nc(N3CCC(F)(F)CC3)c2)CC1 [compound 192]
- Kd (DLK): 0.12 µM
- Kd (LZK [1]; read-out: LZK KD): 0.065 µM

SMILES: Cc1cnc(Nc2cc(C3CCN(C4CCC4)CC3)cc(N3CCC(F)(F)C3)n2)cn1 [compound 162]
- dose-dependent inhibition of LZK (LZK [2]): dose-dependent inhibition

SMILES: CC(=O)N1CCC(c2cc(Nc3cnc(C)cn3)nc(N3CCOCC3)c2)CC1 [compound 191]
- Kd (DLK): 0.17 µM
- Kd (LZK [1]; read-out: LZK KD): 0.23 µM

SMILES: CC(=O)N1CCC(c2cc(Nc3cnccn3)nc(N3CCC(F)(F)C3)c2)CC1 [compound 100]
- Mean permeability [3]: 16.9436 10^−6 cm/sec
- PAMPA [3]: 16.94
- Inhibition of downstream JNK pathway activation (LZK [2]; ELISA assay): effective inhibitor

SMILES: CC(=O)N1CCC(c2cc(Nc3cnc(C)cn3)nc(N3CC4CC(C3)C4O)c2)CC1 (stereo not drawn) [compound 205]
- Kd (DLK): 0.1 µM

SMILES: CC(=O)NC12CC(n3cc(-c4cnc(N)c(OC(F)(F)F)c4)nc3C(O)C(C)C)(C1)C2 (stereo not drawn) [DLK-IN-2, reference compound]
- Mean permeability ([3]; PAMPA): 0.5352 10^−6 cm/sec

SMILES: CC(C)C[C@@H](C=O)NC(=O)[C@H](CC(C)C)NC(=O)[C@H](CC(C)C)NC(=O)OCc1ccccc1 [MG132] (Cbz-Leu-Leu-Leu-aldehyde)
- c-MYC levels in cells depleted of LZK (c-MYC): rescued decreases in the c-MYC levels

SMILES: c1nc(C2CC2)cnc1Nc1cc(C2CN(CC3CC3)C2)cc(N2CC3CC3C2)n1 (stereo not drawn) [compound 219]
- sensitivity (colony formation) (OVCAR5 cells): exquisitely sensitive
- sensitivity (colony formation) (KYSE70 cells): exquisitely sensitive

SMILES: CC(C)C(O)c1nc(-c2cnc(N)c(OC(F)(F)F)c2)cn1C12CC(N)(C1)C2 (stereo not drawn) [DLK-IN-3, reference compound]
- Mean permeability ([3]; PAMPA): 2.9021 10^−6 cm/sec

SMILES: c1nc(C2CC2)cnc1Nc1cc(C2CN(CC3CC3)C2)cc(N2CC3CCC3C2)n1 (stereo not drawn) [compound 228]
- Kd (LZK [1]; read-out: LZK KD): 0.007 µM

SMILES: CC(=O)NC12CC(n3cc(-c4cnc(N)c(C#N)n4)nc3C(O)C(C)C)(C1)C2 (stereo not drawn) [compound 45]
- Kd (LZK [1]; read-out: Kd values): 0.44 µM

SMILES: Cc1cnc(Nc2cc(C3CCN(C4CCCC4)CC3)cc(N3CCC(F)(F)C3)n2)cn1 [compound 164]
- dose-dependent inhibition of LZK (LZK [2]): dose-dependent inhibition
- Phospho-JNK levels (LZK [2]): more effective than GNE-3511
- IC50 (LZK [2]; read-out: inhibition of LZK IC50): ~100 nM
- sensitivity (colony formation) (OVCAR5 cells): sensitive

SMILES: CC(=O)N1CC(c2cc(Nc3cnc(C)cn3)nc(N3CCC(F)(F)C3)c2)C1 [compound 165]
- increase of Kd for DLK over the parent (107) (DLK): 6 fold

SMILES: CC(=O)N1CCC(c2cc(Nc3cnc(C)cn3)nc(N3CCC4(CC3)CC4)c2)CC1 [compound 208]
- Kd (DLK): 0.1 µM

SMILES: CC(=O)N1CCC(c2cc(Nc3cn(C)cn3)nc(N3CCC(F)(F)C3)c2)CC1 [compound 114]
- Kd (DLK): 1.2 µM
- Kd (LZK [1]; read-out: LZK KD): 1.5 µM

SMILES: CC(=O)N1CCC(c2cc(Nc3nccnc3C)nc(N3CCC(F)(F)C3)c2)CC1 [compound 109]
- Kd (DLK; in μM): > 10 µM
- Kd (LZK [1]; in μM, read-out: LZK KD): > 10 µM

SMILES: CC(=O)N1CCC(c2cc(Nc3cnc(C)cn3)nc(N3CC4CC(C4)C3)c2)CC1 [compound 204]
- Kd (LZK [1]; read-out: LZK KD): 0.008 µM

SMILES: CC(=O)N1CCC(c2cc(Nc3ccn(C)n3)nc(N3CCC(F)(F)C3)c2)CC1 [compound 101]
- Kd (DLK; in μM): > 10 µM
- Kd (LZK [1]; in μM, read-out: LZK KD): > 10 µM

SMILES: c1nc(C2CC2)cnc1Nc1cc(C2CCN(CC3CC3)CC2)cc(N2CC3CC3C2)n1 (stereo not drawn) [compound 216]
- Kd (DLK): 0.002 µM
- sensitivity (colony formation) (OVCAR5 cells): exquisitely sensitive
- sensitivity (colony formation) (KYSE70 cells): exquisitely sensitive

SMILES: CC(=O)N1CCC(c2cc(Nc3cnc4ccccc4n3)nc(N3CCC(F)(F)C3)c2)CC1 [compound 112]
- Kd (DLK; in μM): > 10 µM
- Kd (LZK [1]; in μM, read-out: LZK KD): > 10 µM

SMILES: COc1cnc(Nc2cc(C3CCN(C(C)=O)CC3)cc(N3CCC(F)(F)C3)n2)cn1 [compound 115]
- Kd (LZK [1]; read-out: LZK KD): 0.3 µM

SMILES: CC(=O)N1CCC(c2cc(Nc3cc4[nH]ccc4cn3)nc(N3CCC(F)(F)C3)c2)CC1 [compound 104]
- Kd (DLK; in μM): > 10 µM
- Kd (LZK [1]; in μM, read-out: LZK KD): > 10 µM

SMILES: CC(=O)N1CCC(c2cc(Nc3ncccn3)nc(N3CCC(F)(F)C3)c2)CC1 [compound 117]
- Kd (DLK; in μM): > 10 µM
- Kd (LZK [1]; in μM, read-out: LZK KD): > 10 µM

SMILES: CC(=O)N1CCC(c2cc(Nc3cncc(C)n3)nc(N3CCC(F)(F)C3)c2)CC1 [compound 108]
- Kd (DLK; in μM): > 10 µM
- Kd (LZK [1]; in μM, read-out: LZK KD): > 10 µM

SMILES: CC(=O)NC12CC(n3cc(-c4cnc(N)cn4)nc3C(O)C(C)C)(C1)C2 (stereo not drawn) [compound 46]
- Kd (LZK [1]; read-out: Kd values): > 10 µM
